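96-well plates; 48 h exposure; 5 concentrations. Endpoints by linear interpolation between flanking doses. Not reached: highest tested concentration assigned. GI50: concentration for 50% inhibition of growth.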 Calls of active or inactive are those of the source. Rule as the data show it: active = GI50 up to about 1.1 µM and inactive = higher.
Assays:
Experiment in all cases: growth of human tumour cells (NCI), 48 h
LOX IMVI = tested on: LOX IMVI
UO-31 = tested on: UO-31
OVCAR-4 = tested on: OVCAR-4
HCT-116 = tested on: HCT-116
786-0 = tested on: 786-0
SF-539 = tested on: SF-539
OVCAR-5 = tested on: OVCAR-5
Hs-578T = tested on: Hs-578T
MOLT-4 = tested on: MOLT-4
PC-3 = tested on: PC-3
U-251 = tested on: U-251
KM12 = tested on: KM12
DU-145 = tested on: DU-145
K562 = tested on: K562
NCI-H522 = tested on: NCI-H522
SK-MEL-2 = tested on: SK-MEL-2
HCC 2998 = tested on: HCC 2998
T47D = tested on: T47D
A549 = tested on: A549
SK-MEL-5 = tested on: SK-MEL-5

Measured: GI50

Cc1cccc(C)c1NC(=O)C(=O)CC(=O)c1sc(Nc2c(C)cccc2C)nc1C
inactive: LOX IMVI > 100 µM | UO-31 50.8 µM | OVCAR-4 > 100 µM | HCT-116 > 100 µM | 786-0 > 100 µM | SF-539 > 100 µM | OVCAR-5 > 100 µM | Hs-578T > 100 µM | MOLT-4 > 100 µM | PC-3 > 100 µM | U-251 > 100 µM | KM12 > 100 µM | DU-145 > 100 µM | K562 > 100 µM | NCI-H522 > 100 µM | SK-MEL-2 > 100 µM | HCC 2998 > 100 µM | T47D > 100 µM | A549 > 100 µM

O=P1(Oc2ccc(Cl)cc2)OCCS1 (stereo not given)
inactive: LOX IMVI > 100 µM | UO-31 > 100 µM | HCT-116 > 100 µM | 786-0 > 100 µM | SF-539 > 100 µM | OVCAR-5 > 100 µM | Hs-578T > 100 µM | SK-MEL-5 > 100 µM | PC-3 > 100 µM | U-251 > 100 µM | DU-145 > 100 µM | NCI-H522 > 100 µM | SK-MEL-2 > 100 µM | HCC 2998 > 100 µM | T47D > 100 µM | A549 > 100 µM

COc1cccc(/N=N/C(=N/NC(=O)c2ccc(C)cc2)c2ccc(N(CCC#N)CCC#N)cc2OC)c1
inactive: LOX IMVI > 100 µM | UO-31 > 100 µM | OVCAR-4 > 100 µM | HCT-116 > 100 µM | 786-0 > 100 µM | OVCAR-5 24.4 µM | Hs-578T > 100 µM | SK-MEL-5 > 100 µM | MOLT-4 > 100 µM | PC-3 > 100 µM | U-251 > 100 µM | KM12 > 100 µM | DU-145 > 100 µM | K562 > 100 µM | NCI-H522 > 100 µM | SK-MEL-2 > 100 µM | HCC 2998 8.28 µM | T47D > 100 µM | A549 > 100 µM

O=C(/C=C/c1ccc(Cl)cc1)c1ccc(Cl)s1
inactive: LOX IMVI 12.2 µM | UO-31 51.8 µM | OVCAR-4 69 µM | HCT-116 10.5 µM | 786-0 32.9 µM | SF-539 36.5 µM | OVCAR-5 > 100 µM | Hs-578T 40.5 µM | SK-MEL-5 > 10 µM | MOLT-4 27.7 µM | PC-3 63 µM | U-251 32.6 µM | KM12 29.1 µM | DU-145 > 100 µM | K562 30.3 µM | NCI-H522 64.1 µM | HCC 2998 22.2 µM | T47D 46 µM | A549 62.2 µM

Nc1ccn(C2OC(C(OC3OC(CO)C(O)C(N)C3O)C(O)C(O)C(O)C(O)CO)C(N)C(O)C2O)c(=O)n1 (stereo not given)
inactive: LOX IMVI 21.7 µM | UO-31 52 µM | OVCAR-4 3.54 µM | HCT-116 46.3 µM | 786-0 35.5 µM | SF-539 11.3 µM | OVCAR-5 15 µM | Hs-578T 1.98 µM | SK-MEL-5 > 100 µM | MOLT-4 > 100 µM | PC-3 50.7 µM | U-251 > 100 µM | KM12 70 µM | DU-145 > 100 µM | NCI-H522 22.5 µM | SK-MEL-2 > 100 µM | HCC 2998 5.26 µM | T47D > 100 µM | A549 > 100 µM

CCCc1nc(Cl)c(Cl)c(Cl)n1
inactive: LOX IMVI 3.82 µM | UO-31 2.71 µM | OVCAR-4 16 µM | HCT-116 9.68 µM | 786-0 19.9 µM | SF-539 26.9 µM | OVCAR-5 31.8 µM | Hs-578T 14.6 µM | SK-MEL-5 44.5 µM | MOLT-4 12.4 µM | U-251 14.7 µM | KM12 38.6 µM | DU-145 35 µM | K562 9.53 µM | NCI-H522 12.4 µM | T47D 17.5 µM | A549 19.1 µM
active: PC-3 0.426 µM | HCC 2998 0.556 µM

C/C=C/C1OC(O)(C(C)C(O)[C@H](C)C2OC(=O)/C(OC)=C/C(C)=C/[C@@H](C)[C@@H](O)[C@@H](C)C(O)C(C)C/C(C)=C/C=C/C2OC)C[C@@H](OC2CC(O)C(OC(N)=O)C(C)O2)C1C (stereo not given in full)
active: LOX IMVI < 0.01 µM | UO-31 < 0.01 µM | HCT-116 < 0.01 µM | 786-0 < 0.01 µM | SF-539 < 0.01 µM | Hs-578T 0.889 µM | SK-MEL-5 < 0.01 µM | MOLT-4 < 0.01 µM | PC-3 < 0.01 µM | U-251 < 0.0167 µM | KM12 < 0.01 µM | DU-145 < 0.01 µM | K562 < 0.01 µM | NCI-H522 < 0.01 µM | SK-MEL-2 < 0.01 µM | HCC 2998 < 0.01 µM | T47D < 0.01 µM | A549 < 0.01 µM
inactive: OVCAR-4 3.04 µM

c1ccc(C(C2=Nc3cccc4cccc(c34)N2)c2ccccc2)cc1
inactive: LOX IMVI 18.7 µM | UO-31 17.8 µM | OVCAR-4 53.5 µM | HCT-116 > 10 µM | 786-0 26.2 µM | SF-539 17.2 µM | Hs-578T 27 µM | SK-MEL-5 20.5 µM | PC-3 23 µM | U-251 18 µM | KM12 20.6 µM | DU-145 32.2 µM | K562 19 µM | NCI-H522 16.6 µM | SK-MEL-2 20.9 µM | HCC 2998 20.6 µM | T47D 13.3 µM | A549 37.2 µM

Cc1ccsc1/C(S)=N\c1ccc(Cl)c(/C=N/OC(C)(C)C)c1
inactive: LOX IMVI 18.6 µM | UO-31 20.6 µM | OVCAR-4 > 100 µM | HCT-116 16.4 µM | 786-0 20.9 µM | SF-539 50.5 µM | OVCAR-5 > 100 µM | Hs-578T 29.7 µM | SK-MEL-5 31.5 µM | MOLT-4 12.3 µM | PC-3 34.4 µM | U-251 24.3 µM | KM12 25.1 µM | DU-145 25.5 µM | NCI-H522 24 µM | SK-MEL-2 41.8 µM | HCC 2998 18.5 µM | T47D 23.6 µM | A549 30.9 µM

NC(C(F)(F)F)(C(F)(F)F)P(=O)(Cc1ccccc1)Cc1ccccc1
inactive: LOX IMVI > 100 µM | UO-31 > 100 µM | OVCAR-4 > 100 µM | HCT-116 > 100 µM | 786-0 66.1 µM | SF-539 42.8 µM | OVCAR-5 > 100 µM | Hs-578T 58.1 µM | SK-MEL-5 > 100 µM | MOLT-4 > 100 µM | PC-3 > 100 µM | U-251 > 100 µM | KM12 > 100 µM | DU-145 > 100 µM | K562 > 100 µM | SK-MEL-2 > 100 µM | HCC 2998 > 100 µM | T47D > 100 µM | A549 > 100 µM

Oc1c(C2=N[C@H]3CCCC[C@@H]3N2)ccc2ccccc12
inactive: LOX IMVI > 100 µM | UO-31 > 100 µM | OVCAR-4 > 100 µM | HCT-116 > 100 µM | 786-0 > 100 µM | SF-539 > 59.6 µM | OVCAR-5 > 100 µM | Hs-578T > 100 µM | SK-MEL-5 > 100 µM | MOLT-4 > 100 µM | PC-3 > 100 µM | U-251 > 100 µM | KM12 > 100 µM | DU-145 > 100 µM | K562 > 100 µM | NCI-H522 > 100 µM | SK-MEL-2 > 100 µM | HCC 2998 > 100 µM | T47D > 100 µM

CCN(CC)c1ccc(/C=C2\CCc3ccc([N+](=O)[O-])cc3C2=O)cc1
active: LOX IMVI 0.409 µM | HCT-116 0.199 µM | MOLT-4 0.488 µM | KM12 0.582 µM | K562 0.0755 µM | NCI-H522 0.912 µM
inactive: UO-31 7.46 µM | OVCAR-4 > 100 µM | 786-0 2.84 µM | SF-539 2.25 µM | OVCAR-5 > 100 µM | Hs-578T 1.26 µM | SK-MEL-5 1.71 µM | PC-3 1.97 µM | U-251 1.7 µM | DU-145 6.01 µM | HCC 2998 10.1 µM | T47D 4.55 µM | A549 4.58 µM

OC(c1ccco1)C(F)(F)c1nc2ccccc2o1 (stereo not given)
inactive: LOX IMVI > 100 µM | UO-31 69.2 µM | OVCAR-4 > 100 µM | HCT-116 > 100 µM | 786-0 > 100 µM | SF-539 > 100 µM | Hs-578T > 100 µM | SK-MEL-5 > 100 µM | MOLT-4 > 100 µM | PC-3 > 100 µM | U-251 > 100 µM | KM12 > 100 µM | DU-145 > 100 µM | K562 69.8 µM | SK-MEL-2 > 100 µM | HCC 2998 > 100 µM | T47D 61.5 µM

O=C1C=C2CCC[C@H]3OC(=O)C[C@@]23CC1
inactive: LOX IMVI > 100 µM | OVCAR-4 > 100 µM | HCT-116 > 100 µM | 786-0 > 100 µM | SF-539 > 100 µM | OVCAR-5 > 100 µM | Hs-578T > 100 µM | SK-MEL-5 > 100 µM | MOLT-4 > 100 µM | PC-3 > 100 µM | U-251 > 100 µM | KM12 > 100 µM | DU-145 > 100 µM | K562 > 100 µM | NCI-H522 > 100 µM | SK-MEL-2 > 100 µM | HCC 2998 > 100 µM | T47D > 100 µM | A549 > 100 µM

Reference: ChEMBL document CHEMBL1201862, “PubChem BioAssay data set” (2004)
